Point of comparison: `Oc1cc(-c2ccc(Cl)cc2Cl)n[nH]1`, melting point 198 °C. Against it:
- Cc1c(F)ccc(C#N)c1Cl — lower, 63 to 65 °C
- CCOC(=O)[C@@H](CNC(=O)c1ccccc1)[C@H](C)O — lower, 72 to 73 °C
- CCCC(=O)c1cc(OC)c(O)c([N+](=O)[O-])c1 — lower, 92 to 93 °C
- CCOCc1nc2c(N)nc3ccccc3c2n1CCCCCS(=O)(=O)N(C)C — lower, 138 to 142 °C
- CC(=O)Oc1ccc(C(=O)c2nc3ccc(OC(C)=O)cc3s2)cc1 — lower, 183 °C
- Cc1ccc(S(=O)(=O)OCC2C(=O)Nc3ccccc3SC2c2ccccc2)cc1 (configuration not stated) — higher, 215 °C
- Cc1ccc(-c2nc(Cc3cccc(Br)c3)c(C)o2)cc1 — lower, 74 to 75 °C
- O=C1NC(=O)C(c2ccc(Cl)c(Cl)c2)N1 (configuration not stated) — higher, 223 to 225 °C
- Oc1ccc(CNC2=NCCc3ccccc32)cc1 — lower, 177 to 179 °C
- CCCCOc1ccc(-c2nc(CCOS(=O)(=O)c3ccc(C)cc3)c(C)o2)cc1 — lower, 84.9 °C
- N=C1SCCN1c1ccc(C(F)(F)F)cc1[N+](=O)[O-] — lower, 153 °C
- Cn1c(CNC(=O)c2ccc3ccccc3c2)nc(-c2ccncn2)cc1=O — higher, 250 to 252 °C
- CC(C)C(=O)N[C@@H](CS)C(=O)O — lower, 103 to 104 °C
- CC(C)(CCCCCCCCCCOCc1ccccc1)C(=O)O — lower, 53 to 55 °C
- CCCc1nc(-n2cccc2)c(C#N)[nH]1 — lower, 75 to 78 °C
- CNC(=O)[C@H](Cc1ccc(OC(C)C)cc1)NC(=O)[C@@H](N)CC(C)C — lower, 148 to 160 °C
- COc1ccccc1C(=O)OC1=C(c2nnc(-c3ccccc3OC)o2)N(C)S(=O)(=O)c2ccccc21 — lower, 119 to 120 °C
- CC(C)(C)C(=O)C=Cc1ccc2c(c1)OCO2 — lower, 94 to 96 °C
- COc1ccc(O)c2c1SC1CC3C(NC(=S)c4ccccc4)C(O)=C(C(N)=O)C(=O)C3(O)C(O)=C1C2=O (configuration not stated) — higher, 223 °C
- CNC(=O)C1=C(OC(C)C)c2cc(OC)ccc2S1=O (configuration not stated) — lower, 123 to 124 °C
- CCSCCOC(=O)C1=C(C)NC(C)=C(C(=O)OCC=Cc2ccccc2)C1c1cccc([N+](=O)[O-])c1 (configuration not stated) — lower, 142 to 144 °C
- CNC(=O)c1c(I)c(NC(=O)COC)c(I)c(C(=O)NC(CO)C(=O)O)c1I (racemic) — higher, 247 to 248 °C
- FC(F)(F)c1ccc2ncc(Br)cc2c1 — lower, 79 °C
- O=C1Nc2ccccc2Cc2nccn21 — higher, 238 to 240 °C
- CSCC1=C(c2ccccc2)C(=O)N(C(C)(C)C(=O)O)CO1 — lower, 136 to 137 °C
- CC(O)c1ccc(-c2ccc(Cl)c(Cl)c2)o1 (configuration not stated) — lower, 82.5 to 83.5 °C
- CC#CCOc1ccc(S(=O)(=O)N[C@@H](C(=O)NO)C2CCC(O)CC2)cc1 (some centres not stated) — lower, 180 to 182 °C
- CCCC/C=C\CCCCCCCCCC1=CC(=O)C=C(OC)C1=O — lower, 39.5 to 41.5 °C
- CN(C)C(=O)Oc1ccc2c(NCCN3CCOCC3)noc2c1 — lower, 150 °C
- Nc1ccc(OCCCCN2C(=O)c3ccccc3C2=O)cc1 — lower, 119 to 121 °C
- CCN(CC)C(=O)CCNC1(c2ccccc2Cl)C(=O)Nc2ccc(Cl)cc21 (configuration not stated) — lower, 185 °C
- CC(C)CC(NC1OC(=O)C2C3C=CC(C3)C12)C(=O)OCc1ccccc1 (configuration not stated) — lower, 88 °C
- Cc1nc(C)c(Cl)c(CNCc2ccc(O)cn2)n1 — lower, 137 to 138 °C
- CC(=O)n1c2ccccc2c2ccc(C(=O)CCl)cc21 — lower, 175 to 176 °C
- CCC1(CCCCl)C(=O)Nc2ccc(Cl)cc21 (configuration not stated) — lower, 105 to 107 °C
- CCOC(=O)c1c(-c2ccncc2)[nH]c(-c2ccncc2)c1-c1ccccc1 — lower, 99 to 100 °C
- COc1ccc(-c2nc(C)c(Cl)[nH]2)cc1 — lower, 182 to 186 °C
- CS(=O)(=O)C1CC(=O)N1CC(=O)OCc1ccccc1 (single isomer, unassigned; (+)) — lower, 102 to 103 °C
- CCN1C(=O)Cc2cc(C(=O)OC)ccc21 — lower, 97 to 98 °C
- CN(C)Cc1ccc(CSCCNC2=NS(=O)(=O)N=C2N2CCCC2)o1 — lower, 151 to 152 °C
- Fc1ccc(Cn2c(NC3CCN(C4CCCN(Cc5ccccc5)C4)CC3)nc3ccccc32)cc1 (configuration not stated) — lower, 175 °C
- CCc1noc(C)c1-c1[nH]c2ccccc2c1CC(=O)O — lower, 194 to 197 °C
- N#Cc1ccc2c(c1)CCC=C2n1ccnc1 — lower, 152 to 153 °C
- O=C(NCc1cccc(-c2ccc(CS(=O)(=O)Cc3n[nH]c(=O)[nH]3)cc2)c1)c1nc2ccccc2c(=O)[nH]1 — higher, 245 to 247 °C
- CS(=O)(=O)c1ccc(-c2oc3ccccc3c(=O)c2-c2cccc(Cl)c2)cc1 — lower, 195 to 196 °C
- CC(C)Oc1c(C(N)=O)oc2ccc(Cl)cc12 — lower, 154 to 155 °C
- CC(C)c1c(C(=O)Nc2ccccc2)c(-c2ccccc2)c(-c2ccc(F)cc2)n1CC[C@H]1C[C@H](O)CC(=O)O1 (relative stereo) — lower, 90 to 97 °C
- CNC(=NC(=O)NC1CCCCC1)N(C)C — lower, 121 to 124 °C
- COc1ccc(Cc2c(F)cccc2F)c(N(CC(N)=O)S(=O)(=O)c2ccc(OC)c(OC)c2)c1 — lower, 188 °C
- CC(C)(CO)NC(N)=S — lower, 127 to 129 °C
- CCOC(=O)C1CCc2c(c3ccccc3n2C(=O)c2ccccc2)C1 (configuration not stated) — lower, 67 to 69 °C
- CCCCCCCCCCCCCCOc1cn(Cc2ccccc2)c(CBr)cc1=O — lower, 135 to 137 °C
- O=C(c1ccc([N+](=O)[O-])cc1)N1CCOCC1 — lower, 90 to 91 °C
- CCCOc1ccc(-c2scc(-c3ccccc3Cl)c2CC(=O)N=C(N)N)cc1 — lower, 98 to 99 °C
- Cc1cccc(C(Nc2ccccc2)P(=O)(Oc2ccccc2)Oc2ccccc2)n1 (configuration not stated) — lower, 110 to 112 °C
- COc1cc2c(cc1OS(N)(=O)=O)CC(C)(C)N(C(=O)c1cc(OC)c(OC)c(OC)c1)C2 — lower, 172 to 176 °C
- CCc1c(C2=NN=C(C)Cc3cc4[nH]c(=O)oc4cc32)sc2cccc(F)c12 — higher, 297 to 299 °C
- Nc1n[nH]c2nc(C3CC3)cc(-c3ccc(Cl)c(Cl)c3)c12 — higher, 256 to 258 °C
- COc1cc2c(cc1OCCCN1CCC(c3[nH]cc4cc(F)ccc34)CC1)CCCC2=O — lower, 129 to 131 °C
- Cn1c(C(F)(F)F)c(Cl)c(=O)n(-c2c(F)ccc3nc(Cl)sc23)c1=O — lower, 81 to 83 °C
- Cc1nc(C(c2c(Cl)cccc2Cl)n2cncn2)nc(C)c1N (configuration not stated) — lower, 158 to 159 °C
- COc1cc(C2COc3c(C)c(C)c(NC(=O)CC(C)(C)C)c(C)c32)ccc1C(C)=O (configuration not stated) — lower, 131 to 133 °C
- CCOC(=O)C1=Cc2cc(C(F)F)ccc2OC1C(F)(F)F (configuration not stated) — lower, 135 to 136 °C
- N#CC1CCc2c(C(=O)O)cccc21 (configuration not stated) — higher, 206 to 208 °C
- CCN1CCN(CC/C=C/c2ccc3c(Nc4ccc(Sc5nccn5C)c(Cl)c4)c(C#N)cnc3c2)CC1 — not separable, 194 to 204 °C
- COc1nc(C(F)(F)F)cc(=O)n1-c1cc(C(=O)O)c(Cl)cc1F — higher, 205 to 210 °C
- COC(=O)CN(CC(F)(F)F)c1ccc(C#N)c(C(F)(F)F)c1 — lower, 144 to 145 °C
- CC(=O)C1=C(C)CC2C3CCC4CC(O)CCC4(C)C3C(=O)CC12C (configuration not stated) — higher, 230 to 231 °C
- FC(F)(F)c1cc(-c2ccc(Cl)nn2)ccc1Cl — higher, 211 to 214 °C
- COc1ccc(-n2nc(C(C)(C)C)cc2NC(=O)c2cccc3cc(Oc4cc(NCCN(C)C)ncn4)ccc23)cc1 — lower, 116 to 117 °C
- CCCCCCCCCCC(O)C1CCC(C2CCC(C(O)CCCCCCCCCC(O)CC3=CC(C)OC3=O)O2)O1 (configuration not stated) — lower, 69 to 70 °C

Source: a melting point compilation (Tetko et al.; mined from patent text by program, amines drawn as free bases though some values may be those of a salt)
